Some test systems named below: A549 NSCLC; OVCAR-4 ovarian; SF-268 CNS; CAKI-1 renal; HCT-15 colon; PC-3 prostate; IGROV1 ovarian; MDA-MB-231 breast; SF-295 CNS; 786-0 renal.
Holding throughout (assay): growth of human tumour cells (NCI), 48 h

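Protocol summary: plate cells (96-well), add compound at 5 concentrations, incubate 48 h, interpolate endpoints linearly. GI50 is the concentration that inhibits growth by half. Definition used: TGI = concentration required for complete inhibition of growth.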

For the molecule `C1=N[C@]23C(=N[C@H](N=C2NCc2ccco2)[C@]24N=CNC2=N[C@H]3N=C4NCc2ccco2)N1`, the GI50 in the assay with A549 NSCLC is more than 100 µM; with OVCAR-4 ovarian, 65 µM; in the assay on SF-268 CNS, more than 100 µM; in the assay with CAKI-1 renal, 19.5 µM; with HCT-15 colon, more than 100 µM; with PC-3 prostate, more than 100 µM. Further, the GI50 with IGROV1 ovarian, with MDA-MB-231 breast and in the assay on SF-295 CNS was more than 100 µM each time. Besides, the TGI in the assay with A549 NSCLC, with OVCAR-4 ovarian, in the assay with SF-268 CNS, with CAKI-1 renal, in the assay on HCT-15 colon and with PC-3 prostate was more than 100 µM in each case. In addition, the TGI in the assay with IGROV1 ovarian, in the assay with MDA-MB-231 breast and in the assay with SF-295 CNS was more than 100 µM each time.

As to `CCOC(=O)/C=C/n1c2ccccc2c(=O)c2cc(OC)ccc21`, the TGI in the assay with A549 NSCLC, in the assay on OVCAR-4 ovarian, with 786-0 renal, in the assay with SF-268 CNS, with CAKI-1 renal and with HCT-15 colon was more than 100 µM throughout. In addition, the TGI in the assay on IGROV1 ovarian and in the assay with SF-295 CNS was more than 100 µM each time.

As to `O=C(Nc1ccccc1[N+](=O)[O-])/C(=N/Nc1cccc(Cl)c1)c1c(O)c2ccccc2oc1=O`, the TGI in the assay with A549 NSCLC, in the assay with OVCAR-4 ovarian, in the assay with 786-0 renal, with SF-268 CNS, in the assay on CAKI-1 renal and with HCT-15 colon was more than 100 µM in each case. Further, the TGI with IGROV1 ovarian and with SF-295 CNS was more than 100 µM each time.

Regarding `CCOC(=O)NN(C(=O)OCC)c1ccc(N=Nc2ccc(OC)cc2)n1C`, the TGI with A549 NSCLC is 63.5 µM; with OVCAR-4 ovarian, more than 100 µM; in the assay on 786-0 renal, 97.9 µM; in the assay on HCT-15 colon, 39.1 µM; in the assay on PC-3 prostate, 53.4 µM; with IGROV1 ovarian, 87.2 µM. Moreover, the TGI in the assay on MDA-MB-231 breast is 65.5 µM; with SF-295 CNS, more than 100 µM.

In the case of `Cc1ccc2nc(N)[nH]c(=O)c2c1Sc1ccncc1`, the TGI in the assay with A549 NSCLC, in the assay with OVCAR-4 ovarian, in the assay with 786-0 renal, in the assay with SF-268 CNS, with CAKI-1 renal and in the assay with HCT-15 colon was more than 100 µM throughout. Moreover, the TGI with IGROV1 ovarian and in the assay with SF-295 CNS was more than 100 µM in each case.

As for `COc1ccc(C=Nc2ccc(-c3nc4ccccc4s3)cc2)cc1OC`, the TGI in the assay with A549 NSCLC is more than 100 µM; with OVCAR-4 ovarian it was more than 100 µM; in the assay with 786-0 renal, 44.3 µM; with SF-268 CNS, more than 100 µM; in the assay on CAKI-1 renal it was more than 100 µM; in the assay with HCT-15 colon it was more than 100 µM. Moreover, the TGI with PC-3 prostate was determined as 69.9 µM; in the assay with IGROV1 ovarian it was 86.4 µM; with SF-295 CNS it was 55.5 µM.

Consider `CC(=N/NC(=S)N1CCCCCC1)/C(C)=N\NC(=S)N1CCCCCC1`, for which the TGI was determined as 18.1 µM with A549 NSCLC; 9.79 µM with 786-0 renal; 11.2 µM in the assay on SF-268 CNS; 12.4 µM in the assay on CAKI-1 renal; 13.6 µM in the assay on HCT-15 colon; 23.8 µM in the assay on PC-3 prostate. Besides, the TGI in the assay with IGROV1 ovarian was 8.44 µM; in the assay with MDA-MB-231 breast, more than 22.8 µM; in the assay with SF-295 CNS it was 12.5 µM.

Regarding `CC(C)OP(=O)(OC(C)C)C(=NCCO)NNc1ccc([N+](=O)[O-])cc1`, the TGI in the assay on A549 NSCLC, in the assay on OVCAR-4 ovarian, with 786-0 renal, in the assay with SF-268 CNS, with CAKI-1 renal and with HCT-15 colon was more than 100 µM each time.

For the molecule `Oc1ccc(-c2c3ccccc3c(-c3ccc(O)cc3)c3ccccc23)cc1`, the TGI in the assay on A549 NSCLC, in the assay on OVCAR-4 ovarian, in the assay with 786-0 renal, with SF-268 CNS, with CAKI-1 renal and in the assay on HCT-15 colon was more than 100 µM in each case. Also, the TGI in the assay on IGROV1 ovarian and in the assay on SF-295 CNS was more than 100 µM each time.

Turning to `O=C1CC(c2ccc(Cl)cc2)C2(C(=O)NC(=S)NC2=O)C(c2ccc(Cl)cc2)C1` (stereo unspecified), the TGI is 73 µM in the assay on A549 NSCLC; 37.9 µM in the assay on OVCAR-4 ovarian; more than 100 µM in the assay on 786-0 renal; 31.9 µM in the assay on SF-268 CNS; 74.6 µM in the assay with CAKI-1 renal; 52.8 µM in the assay on HCT-15 colon. The figures for the TGI in the assay with PC-3 prostate, in the assay with MDA-MB-231 breast and in the assay with SF-295 CNS were 55.1 µM, 46.8 µM and 35.9 µM, respectively.

Turning to `Cc1c(C)c2c(c(C)c1OC(=O)CCC(=O)[O-])CCC(C)(CCCCCCCCCCC[P+](c1ccccc1)(c1ccccc1)c1ccccc1)O2` (stereo unspecified), the GI50 was 0.234 µM with A549 NSCLC; 0.158 µM in the assay on OVCAR-4 ovarian; 0.451 µM with CAKI-1 renal; 0.977 µM in the assay with HCT-15 colon; 0.158 µM in the assay on PC-3 prostate. Further, the TGI in the assay with A549 NSCLC stood at 4.58 µM; in the assay on OVCAR-4 ovarian, 0.891 µM; with CAKI-1 renal, 1.34 µM; with HCT-15 colon it was 3.02 µM; in the assay with PC-3 prostate it was 0.706 µM.

Regarding `N#C/C(=C\c1ccc(O)c(O)c1)c1c(C#N)c(N)nn1-c1ccccc1`, the TGI in the assay with A549 NSCLC was 39.3 µM; in the assay with OVCAR-4 ovarian, 38.7 µM; with 786-0 renal, 21.1 µM; in the assay on SF-268 CNS, more than 100 µM; with CAKI-1 renal, 9.05 µM; with HCT-15 colon, 36.8 µM. The TGI stood at 14.5 µM in the assay on IGROV1 ovarian and 47.7 µM in the assay with SF-295 CNS.

On to `CCOC(=O)/C(Br)=C1\OC(=O)c2ccccc2-c2ccccc21`, for which the TGI with A549 NSCLC, with 786-0 renal, in the assay with SF-268 CNS, in the assay with CAKI-1 renal, in the assay on HCT-15 colon and with IGROV1 ovarian was more than 100 µM throughout. Moreover, the TGI with SF-295 CNS was more than 100 µM.

Regarding `COc1cccc(N/C(C)=C2/CCOC2=O)c1`, the TGI with A549 NSCLC, in the assay on OVCAR-4 ovarian, in the assay with SF-268 CNS, in the assay on CAKI-1 renal, with HCT-15 colon and with PC-3 prostate was more than 10 µM each time. For the same molecule, the TGI in the assay on IGROV1 ovarian, in the assay on MDA-MB-231 breast and in the assay on SF-295 CNS was more than 10 µM each time.

In the case of `COc1ccc(CN(CCN(C)C)c2ccccn2)cc1` (tested in a mixture with another compound), the TGI in the assay on 786-0 renal, in the assay with SF-268 CNS, in the assay on CAKI-1 renal, in the assay on HCT-15 colon, in the assay on IGROV1 ovarian and in the assay on SF-295 CNS was more than 100 µM in each case.

Source of the values: PubChem BioAssay (NCI).
